Counter-ions that a name gives are not always drawn.
target: T1, Angiotensin II-Rezeptor (Rattus norvegicus, UniProt P25095); assay: Angiotensin II receptor binding (displacement of [125I]-angiotensin II, rat lung homogenate); set-up: species or system Ratte; details: Rattenlunge homogenate; 50 pM [125I]-Angiotensin II; 60 Min. bei 37°C; read-out: IC₅₀
T1 construct: Das Gewebe (Rattenlunge) wird in Tris-Puffer; from tissue; host or cells: rat lung homogenate (membrane pellet, 20,000 x g)
T1 sequence (P25095 1-359): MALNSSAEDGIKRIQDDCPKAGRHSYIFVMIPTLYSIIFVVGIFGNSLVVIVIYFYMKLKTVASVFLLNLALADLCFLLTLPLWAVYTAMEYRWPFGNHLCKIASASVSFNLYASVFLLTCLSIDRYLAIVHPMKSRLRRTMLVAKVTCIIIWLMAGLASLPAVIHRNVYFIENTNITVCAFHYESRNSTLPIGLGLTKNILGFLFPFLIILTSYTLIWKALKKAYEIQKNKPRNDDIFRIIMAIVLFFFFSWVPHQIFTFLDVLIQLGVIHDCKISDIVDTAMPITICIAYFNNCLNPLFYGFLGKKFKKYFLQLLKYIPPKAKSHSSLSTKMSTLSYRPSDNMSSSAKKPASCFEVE
Experimental: Methodenbeschreibung Angiotensin II-Rezeptorbindung
Das Gewebe (Rattenlunge) wird in Tris-Puffer (50 mMol Tris, 150 mMol NaCl, 5 mMol EDTA, pH 7.40) homogenisiert und zweimal je 20 Min. bei 20.000 x g zentrifugiert. Das endgültige Pellet wird in Inkubations-Puffer (50 mMol Tris, 5 mMol MgCl₂, 0,2 % BSA, pH 7,40) 1:75, bezogen auf das Feuchtgewicht des Gewebes, resuspendiert. Je 0,1 ml Homogenat wird für 60 Min. bei 37°C mit 50 pM [125^I]-Angiotensin II (NEN, Dreieich, FRG) und steigenden Konzentrationen der Testsubstanz in einem Gesamtvolumen von 0,25 ml inkubiert. Die Inkubation wird durch rasche Filtration durch Glasfiber-Filtermatten beendet. Die Filter werden je 4 ml eiskaltem Puffer (25 mMol Tris, 2.5 mMol MgCl₂, 0,1 % BSA, pH 7,40) gewaschen. Die gebundene Radioaktivität wird in einem Gamma-Counter ermittelt. Aus der Dosis-Wirkungskurve wird der entsprechende IC₅₀-Wert ermittelt.

| Compound | IC50 [µM] |
| --- | --- |
| CCCCc1nc2c(C)ccc(OCCCn3cnc4ccccc43)c2n1Cc1ccc(-c2ccccc2C(=O)O)cc1 [Substanz B, 4'-[[2-n-Butyl-7-[3-(benzimidazol-1-yl)-propyloxy]-4-methyl-benzimidazol-1-yl]-methyl]-biphenyl-2-carbonsäure-trifluoracetat] | 0.052 |
| CCCCc1nc2c(C)cc(NC(=O)NC3CCCCC3)cc2n1Cc1ccc(-c2ccccc2C(=O)O)cc1 [Substanz K, 4'-[[2-n-Butyl-6-(cyclohexylaminocarbonylamino)-4-methyl-benzimidazol-1-yl]-methyl]-biphenyl-2-carbonsäure-semi-trifluoracetat] | 0.017 |
| CCCc1nc2c(C)cc(-c3cn4c(n3)CCCC4)cc2n1Cc1ccc(-c2ccccc2C(=O)O)cc1 [Substanz P, 4'-[(2-n-Propyl-4-methyl-6-(5,6,7,8-tetrahydro-imidazo-[1,2-a]pyridin-2-yl)-benzimidazol-1-yl)-methyl]-biphenyl-2-carbonsäure] | 0.0012 |
| Cc1cc(-c2nc3ccccc3n2C)cc2c1nc(C1CC1)n2Cc1ccc(-c2ccccc2C(=O)O)cc1 [Substanz M, 4'-[(2-Cyclopropyl-4-methyl-6-(1-methylbenzimidazol-2-yl)-benzimidazol-1-yl)-methyl]-biphenyl-2-carbonsäure] | 0.012 |
| CCCCc1nc2c(C)cc(NC(=O)C(C)C)cc2n1Cc1ccc(-c2ccccc2C(=O)O)cc1 [Substanz I, 4'-[[2-n-Butyl-6-(isopropylcarbonylamino)-4-methyl-benzimidazol-1-yl]-methyl]-biphenyl-2-carbonsäure] | 0.0066 |
| CCCc1nc2c(Cl)cc(-c3nc4ccccc4n3C)cc2n1Cc1ccc(-c2ccccc2-c2nn[nH]n2)cc1 [Substanz R, 4'-[(2-n-Propyl-4-chlor-6-(1-methylbenzimidazol-2-yl)-benzimidazol-1-yl)-methyl]-2-(1H-tetrahol-5-yl)-biphenyl-hydrochlorid] | 0.02 |
| CCCc1nc2c(C)cc(-c3cn4ccsc4n3)cc2n1Cc1ccc(-c2ccccc2C(=O)O)cc1 [Substanz S, 4'-[[2-n-Propyl-4-methyl-6-(imidazo[2,1-b]thiazol-6-yl)-benzimidazol-1-yl]-methyl]-biphenyl-2-carbonsäure] | 0.0078 |
| CCCCc1nc2c(C)cc(NC(=O)N3CCOCC3)cc2n1Cc1ccc(-c2ccccc2C(=O)O)cc1 [Substanz J, 4'-[[2-n-Butyl-4-methyl-6-(morpholinocarbonylamino)-benzimidazol-1-yl]-methyl]-biphenyl-2-carbonsäure] | 0.0035 |
| CCCc1nc2c(C)cc(-c3nc4ccccc4n3C)cc2n1Cc1ccc(-c2ccccc2C(=O)O)cc1 [Substanz D, 4'-[[2-n-Propyl-4-methyl-6-(1-methylbenzimidazol-2-yl)-benzimidazol-1-yl]-methyl]-biphenyl-2-carbonsäure] | 0.0037 |
| CCCCc1nc2c(C)ccc(OCCCCn3cnc4c3CCCC4)c2n1Cc1ccc(-c2ccccc2C(=O)O)cc1 [Substanz C, 4'-[[2-n-Butyl-4-methyl-7-[4-(tetrahydrobenzimidazol-1-yl)-butyloxy]-benzimidazol-1-yl]-methyl]-biphenyl-2-carbonsäure] | 0.13 |
| CCCc1nc2c(C)cc(-c3cn4cccnc4n3)cc2n1Cc1ccc(-c2ccccc2-c2nnn[nH]2)cc1 [Substanz O, 4'-[(2-n-Propyl-4-methyl-6-(imidazo[1,2-a]pyrimidin-2-yl)-benzimidazol-1-yl)-methyl]-2-(1H-tetrazol-5-yl)-biphenyl] | 0.0034 |
| CCCc1nc2c(C)cc(N3Cc4ccccc4C3=O)cc2n1Cc1ccc(-c2ccccc2-c2nnn[nH]2)cc1 [Substanz F, 4'-[[2-n-Propyl-4-methyl-6-(1-oxo-isoindolin-2-yl)-benzimidazol-1-yl]-methyl]-2-(1H-tetrazol-5-yl)-biphenyl] | 0.005 |
| CCCc1nc2c(C)cc(-c3nc4ccccc4n3C)cc2n1Cc1ccc(-c2ccccc2-c2nnn[nH]2)cc1 [Substanz E, 4'-([2-n-Propyl-4-methyl-6-(1-methylbenzimidazol-2-yl)-benzimidazol-1-yl]-methyl]-2-(1H-tetrazol-5-yl)-biphenyl] | 0.014 |
| CCCc1nc2c(C)cc(N3CCCCS3(=O)=O)cc2n1Cc1ccc(-c2ccccc2-c2nn[nH]n2)cc1 [Substanz G, 4'-[[2-n-Propyl-4-methyl-6-(butansultam-1-yl)-benzimidazol-1-yl]-methyl]-2-(1H-tetrazol-5-yl)-biphenyl] | 0.0012 |
| CCCCc1nc2c(C)ccc(OCCCn3ccnc3)c2n1Cc1ccc(-c2ccccc2C(=O)O)cc1 [Substanz A, 4'-[[2-n-Butyl-7-[3-(imidazol-1-yl)-propyloxy]-4-methyl-benzimidazol-1-yl]-methyl]-biphenyl-2-carbonsäure] | 0.51 |
| CCCc1nc2c(C)cc(-c3nc4cc(F)ccc4n3C)cc2n1Cc1ccc(-c2ccccc2C(=O)O)cc1 [Substanz N, 4'-[(2-n-Propyl-4-methyl-6-(1-methyl-5-fluor-benzimidazol-2-yl)-benzimidazol-1-yl)-methyl]-biphenyl-2-carbonsäure] | 0.026 |
| CCCCc1nc2c(C)ccc(OCCCn3ccnc3)c2n1Cc1ccc(-c2ccccc2-c2nnn[nH]2)cc1 [Substanz L, 4'-[[2-n-Butyl-7-[3-(imidazol-1-yl)-propyloxy]-4-methyl-benzimidazol-1-yl]-methyl]-2-(1H-tetrazol-5-yl)-biphenyl] | 0.24 |
| CCCc1nc2c(C)cc(-c3cn4c(n3)CCCC4)cc2n1Cc1ccc(-c2ccccc2-c2nnn[nH]2)cc1 [Substanz Q, 4'-[(2-n-Propyl-4-methyl-6-(5,6,7,8-tetrahydro-imidazo-[1,2-a]pyridin-2-yl)-benzimidazol-1-yl)-methyl]-2-(1H-tetrazol-5-yl)-biphenyl] | 0.0017 |
| CCCCc1nc2c(C)cc(N3C(=O)C(C)=C(C)C3=O)cc2n1Cc1ccc(-c2ccccc2C(=O)O)cc1 [Substanz H, 4'-[[2-n-Butyl-6-(2,3-dimethylmaleinsäureimino)-4-methyl-benzimidazol-1-yl]-methyl]-biphenyl-2-carbonsäure-semihydrat] | 0.02 |

Reference: patent EP0502314A1, “Benzimidazol, medicaments containing them and process for their preparation” (Dr. Karl Thomae GmbH, priority 1991, dated 1992)
